#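 Test compounds were applied to cells in 96-well plates for 48 hours at 5 doses. GI50 marks 50% less growth. TGI is the concentration that stops growth completely.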
# Assays:
# Assay in all cases: NCI anticancer screen, dose series, 48 h
# NCI-H226 lung = test system: NCI-H226 lung
# SF-539 CNS = test system: SF-539 CNS
# DU-145 prostate = test system: DU-145 prostate
# RPMI-8226 leukemia = test system: RPMI-8226 leukemia
# NCI-H522 lung = test system: NCI-H522 lung
# PC-3 prostate = test system: PC-3 prostate
# TK-10 renal = test system: TK-10 renal
# 786-0 renal = test system: 786-0 renal
# HCT-116 colon = test system: HCT-116 colon
# K-562 leukemia = test system: K-562 leukemia
# HOP-92 NSCLC = test system: HOP-92 NSCLC
# NCI-H23 lung = test system: NCI-H23 lung
# COLO 205 colon = test system: COLO 205 colon
# UACC-62 melanoma = test system: UACC-62 melanoma
# MCF7 breast = test system: MCF7 breast
# SN12C renal = test system: SN12C renal
# CCRF-CEM leukemia = test system: CCRF-CEM leukemia
# HS 578T breast = test system: HS 578T breast
# ACHN renal = test system: ACHN renal
# CAKI-1 renal = test system: CAKI-1 renal
# SK-OV-3 ovarian = test system: SK-OV-3 ovarian
# OVCAR-8 ovarian = test system: OVCAR-8 ovarian
# SW-620 colon = test system: SW-620 colon
# M14 melanoma = test system: M14 melanoma
# SF-268 CNS = test system: SF-268 CNS
# LOX IMVI melanoma = test system: LOX IMVI melanoma
# HCC-2998 colon = test system: HCC-2998 colon
# SNB-75 CNS = test system: SNB-75 CNS
# UO-31 renal = test system: UO-31 renal
# SK-MEL-5 melanoma = test system: SK-MEL-5 melanoma
# A549 NSCLC = test system: A549 NSCLC
# MDA-MB-231 breast = test system: MDA-MB-231 breast
# HT29 colon = test system: HT29 colon
# SK-MEL-2 melanoma = test system: SK-MEL-2 melanoma
# SK-MEL-28 melanoma = test system: SK-MEL-28 melanoma
# IGROV1 ovarian = test system: IGROV1 ovarian
# OVCAR-3 ovarian = test system: OVCAR-3 ovarian
# UACC-257 melanoma = test system: UACC-257 melanoma
# T-47D breast = test system: T-47D breast
# MDA-MB-435 = test system: MDA-MB-435
# U251 CNS = test system: U251 CNS
# MALME-3M melanoma = test system: MALME-3M melanoma
# HOP-62 NSCLC = test system: HOP-62 NSCLC
# SNB-19 CNS = test system: SNB-19 CNS
# NCI-H460 lung = test system: NCI-H460 lung
# NCI/ADR-RES ovarian = test system: NCI/ADR-RES ovarian
# MDA-N = test system: MDA-N
# OVCAR-4 ovarian = test system: OVCAR-4 ovarian
# EKVX NSCLC = test system: EKVX NSCLC
# OVCAR-5 ovarian = test system: OVCAR-5 ovarian
# SF-295 CNS = test system: SF-295 CNS
# MOLT-4 leukemia = test system: MOLT-4 leukemia
# A498 renal = test system: A498 renal
# HL-60(TB) leukemia = test system: HL-60(TB) leukemia
# BT-549 breast = test system: BT-549 breast
# HCT-15 colon = test system: HCT-15 colon
# KM12 colon = test system: KM12 colon
# RXF 393 renal = test system: RXF 393 renal
compound,measurement,setting,value
C=C1CC(C)(COc2ccc3c(C)c(C)c(=O)oc3c2C)OC1=O (stereo not drawn),TGI,NCI-H226 lung,32.6 µM
same,TGI,SF-539 CNS,7.04 µM
same,TGI,DU-145 prostate,7.08 µM
same,TGI,RPMI-8226 leukemia,2.59 µM
same,TGI,NCI-H522 lung,4.28 µM
same,TGI,PC-3 prostate,7.08 µM
same,TGI,TK-10 renal,3.08 µM
same,TGI,786-0 renal,3.24 µM
same,TGI,HCT-116 colon,2.41 µM
same,TGI,K-562 leukemia,4.4 µM
same,TGI,HOP-92 NSCLC,2.76 µM
same,TGI,NCI-H23 lung,5.25 µM
same,TGI,COLO 205 colon,2.75 µM
same,TGI,UACC-62 melanoma,2.74 µM
same,TGI,MCF7 breast,2.84 µM
same,TGI,SN12C renal,4.28 µM
same,TGI,CCRF-CEM leukemia,3.2 µM
same,TGI,HS 578T breast,15.1 µM
same,TGI,ACHN renal,7.45 µM
same,TGI,CAKI-1 renal,6.26 µM
same,TGI,SK-OV-3 ovarian,12.2 µM
same,TGI,OVCAR-8 ovarian,7.69 µM
same,TGI,SW-620 colon,3.92 µM
same,TGI,M14 melanoma,10.7 µM
same,TGI,SF-268 CNS,15.7 µM
same,TGI,LOX IMVI melanoma,2.91 µM
same,TGI,HCC-2998 colon,4.49 µM
same,TGI,SNB-75 CNS,15.9 µM
same,TGI,UO-31 renal,22.2 µM
same,TGI,SK-MEL-5 melanoma,3.73 µM
same,TGI,A549 NSCLC,21 µM
same,TGI,MDA-MB-231 breast,7.8 µM
same,TGI,HT29 colon,5.39 µM
same,TGI,SK-MEL-2 melanoma,5.58 µM
same,TGI,SK-MEL-28 melanoma,5.08 µM
same,TGI,IGROV1 ovarian,3.35 µM
same,TGI,OVCAR-3 ovarian,14.2 µM
same,TGI,UACC-257 melanoma,6.98 µM
same,TGI,T-47D breast,3.09 µM
same,TGI,MDA-MB-435,11.2 µM
same,TGI,U251 CNS,18.9 µM
same,TGI,MALME-3M melanoma,5.53 µM
same,TGI,HOP-62 NSCLC,28.8 µM
same,TGI,SNB-19 CNS,30.4 µM
same,TGI,NCI-H460 lung,19.6 µM
same,TGI,NCI/ADR-RES ovarian,13.8 µM
same,TGI,MDA-N,4.61 µM
same,TGI,OVCAR-4 ovarian,19.3 µM
same,TGI,EKVX NSCLC,15.1 µM
same,TGI,OVCAR-5 ovarian,16.2 µM
same,TGI,SF-295 CNS,16.1 µM
same,TGI,MOLT-4 leukemia,4.13 µM
same,TGI,A498 renal,4.26 µM
same,TGI,HL-60(TB) leukemia,0.954 µM
same,TGI,BT-549 breast,3.07 µM
same,TGI,HCT-15 colon,4.54 µM
same,TGI,KM12 colon,19.6 µM
O=C(c1ccc(Cl)c(Cl)c1)N1CCN(C(=O)c2ccc(Cl)c(Cl)c2)C1=S,GI50,NCI-H226 lung,19 µM
same,TGI,NCI-H226 lung,37.4 µM
same,GI50,SF-539 CNS,15.1 µM
same,TGI,SF-539 CNS,29.9 µM
same,GI50,DU-145 prostate,14.7 µM
same,TGI,DU-145 prostate,29 µM
same,TGI,RPMI-8226 leukemia,5.6 µM
same,GI50,NCI-H522 lung,6.14 µM
same,TGI,NCI-H522 lung,25 µM
same,GI50,PC-3 prostate,16.7 µM
same,TGI,PC-3 prostate,31.7 µM
same,GI50,TK-10 renal,18.5 µM
same,TGI,TK-10 renal,36.5 µM
same,GI50,786-0 renal,7.16 µM
same,TGI,786-0 renal,20.5 µM
same,GI50,HCT-116 colon,18.1 µM
same,TGI,HCT-116 colon,32.8 µM
same,GI50,K-562 leukemia,16.3 µM
same,TGI,K-562 leukemia,60 µM
same,GI50,HOP-92 NSCLC,20 µM
same,TGI,HOP-92 NSCLC,34.2 µM
same,GI50,NCI-H23 lung,22 µM
same,TGI,NCI-H23 lung,43 µM
same,GI50,COLO 205 colon,17.8 µM
same,TGI,COLO 205 colon,33.6 µM
same,GI50,UACC-62 melanoma,18.1 µM
same,TGI,UACC-62 melanoma,34.4 µM
same,GI50,MCF7 breast,5.57 µM
same,TGI,MCF7 breast,36.4 µM
same,GI50,SN12C renal,18.3 µM
same,TGI,SN12C renal,43.9 µM
same,GI50,CCRF-CEM leukemia,4.47 µM
same,TGI,CCRF-CEM leukemia,18.7 µM
same,GI50,HS 578T breast,29.1 µM
same,TGI,HS 578T breast,> 100 µM
same,GI50,ACHN renal,19.2 µM
same,TGI,ACHN renal,34.4 µM
same,GI50,CAKI-1 renal,14 µM
same,TGI,CAKI-1 renal,27.1 µM
same,GI50,SK-OV-3 ovarian,18.2 µM
same,TGI,SK-OV-3 ovarian,33.9 µM
same,GI50,OVCAR-8 ovarian,19 µM
same,TGI,OVCAR-8 ovarian,34.1 µM
same,GI50,SW-620 colon,21.3 µM
same,TGI,SW-620 colon,52.1 µM
same,GI50,M14 melanoma,19.6 µM
same,TGI,M14 melanoma,37.9 µM
same,GI50,SF-268 CNS,16.8 µM
same,TGI,SF-268 CNS,47.9 µM
same,GI50,LOX IMVI melanoma,7.63 µM
same,TGI,LOX IMVI melanoma,24.2 µM
same,GI50,HCC-2998 colon,19.9 µM
same,TGI,HCC-2998 colon,42.9 µM
same,GI50,SNB-75 CNS,18.9 µM
same,TGI,SNB-75 CNS,36.4 µM
same,GI50,A549 NSCLC,27.8 µM
same,TGI,A549 NSCLC,68.9 µM
same,GI50,MDA-MB-231 breast,18.8 µM
same,TGI,MDA-MB-231 breast,33.3 µM
same,GI50,HT29 colon,24.2 µM
same,TGI,HT29 colon,53 µM
same,GI50,SK-MEL-2 melanoma,18.4 µM
same,TGI,SK-MEL-2 melanoma,33.9 µM
same,GI50,SK-MEL-28 melanoma,30.6 µM
same,TGI,SK-MEL-28 melanoma,69.8 µM
same,GI50,RXF 393 renal,17.8 µM
same,TGI,RXF 393 renal,35.8 µM
same,GI50,IGROV1 ovarian,19.7 µM
same,TGI,IGROV1 ovarian,36.3 µM
same,GI50,OVCAR-3 ovarian,17.1 µM
same,TGI,OVCAR-3 ovarian,35.2 µM
same,GI50,UACC-257 melanoma,17.3 µM
same,TGI,UACC-257 melanoma,35.6 µM
same,GI50,T-47D breast,17.5 µM
same,TGI,T-47D breast,73.6 µM
same,GI50,MDA-MB-435,15.4 µM
same,TGI,MDA-MB-435,31.3 µM
same,GI50,U251 CNS,16.4 µM
same,TGI,U251 CNS,29.9 µM
same,GI50,MALME-3M melanoma,14.9 µM
same,TGI,MALME-3M melanoma,30.6 µM
same,GI50,HOP-62 NSCLC,17.6 µM
same,TGI,HOP-62 NSCLC,42.8 µM
same,GI50,SNB-19 CNS,21.4 µM
same,TGI,SNB-19 CNS,40.7 µM
same,GI50,NCI-H460 lung,22 µM
same,TGI,NCI-H460 lung,49.4 µM
same,GI50,NCI/ADR-RES ovarian,34.4 µM
same,TGI,NCI/ADR-RES ovarian,> 100 µM
same,GI50,MDA-N,18.3 µM
same,TGI,MDA-N,38.4 µM
same,GI50,OVCAR-4 ovarian,16.8 µM
same,TGI,OVCAR-4 ovarian,31.4 µM
same,GI50,EKVX NSCLC,20.8 µM
same,TGI,EKVX NSCLC,38.4 µM
same,GI50,OVCAR-5 ovarian,24.3 µM
same,TGI,OVCAR-5 ovarian,51.3 µM
same,GI50,SF-295 CNS,18.5 µM
same,TGI,SF-295 CNS,39.7 µM
same,GI50,MOLT-4 leukemia,15.7 µM
same,TGI,MOLT-4 leukemia,36.3 µM
same,GI50,A498 renal,20.2 µM
same,TGI,A498 renal,36 µM
same,GI50,HL-60(TB) leukemia,12.7 µM
same,TGI,HL-60(TB) leukemia,31.3 µM
same,GI50,BT-549 breast,23.6 µM
same,TGI,BT-549 breast,48 µM
same,GI50,HCT-15 colon,19.6 µM
same,TGI,HCT-15 colon,43.7 µM
same,GI50,KM12 colon,16.1 µM
same,TGI,KM12 colon,33.1 µM

# Source: PubChem BioAssay (NCI)
